Laboratory results: patent publication US20080261821A1, “Mechanism-Based Crosslinkers” (THE REGENTS OF TE UNIVERSITY OF CALIFORNIA, priority 2004, published 2008)
The star is where a group is joined. Biotin = O=C1N[C@H]2[C@H](CS[C@H]2CCCCC(=O)*)N1; Ahx = NCCCCCC(=O)O

Columns and labels:
AKT kinase = target: T1, AKT kinase (Homo sapiens, UniProt P31749); test: Kinase cell lysate crosslinking (avidin-agarose pull-down, anti-AKT blot); assay type: biochemical; settings: 100 ng AKT kinase, 2 μg HeLa cell lysate; for anti-AKT signal after avidin-agarose pull-down of the biotinylated substrate: 1 μM substrate, 100 μM crosslinker 2, 90 minutes
T1 construct: host or cells: added to HeLa cell lysate
Experimental: Kinase cell lysate crosslinking details: 1 μM of Akt substrate (Biotin-PEG-RPRTSCF-OH) and 100 ng of AKT kinase was added to 2 μg of HeLa cell lysate. 100 μM of the crosslinker 2 was added to cell lysate and the reaction was allowed to proceed for 90 minutes. The lysate were poured over avidin-agarose beads and the beads were washed with wash buffer. The bound protein was eluted from the agarose beads with loading buffer and then subjected to SDS-PAGE. The gel was transferred to nitrocellulose and probed with anti-AKT. […] As a control, the non-cysteine containing AKT substrate (Biotin-PEG-RPRTSSF-OH) was used in the crosslinking reaction described above. No signal was observed.

His 6-tagged human Akt1 = target: T2, His 6-tagged human Akt1 (Homo sapiens, UniProt P31749); test: Crosslinking reactions with AKT1 (SDS-PAGE, streptavidin-HRP blot); assay type: biochemical; settings: for crosslinking of peptide to AKT1 (formation of the peptide-AKT1 complex): peptide incubated with AKT1 in the presence of dialdehyde crosslinker 2, FIG. 2A
T2 construct: purchased Calbiochem
Experimental: His 6-tagged human Akt1 (10 ng), 1 μM peptide 3 or 4, and 20 µM crosslinker 2 were incubated in 30 μL of 25 mM HEPES (pH=7.5), 150 mM NaCl, 2 mM MgCl2, 20 μM BME for 20 min at rt. After 20 min, 6 μL of 6× loading buffer was added to quench the reactions. The sample mixtures (10 μL) were resolved by 8-16% SDS-PAGE, transferred to nitrocellulose, and the membrane was probed with streptavidin-HRP.
To evaluate dialdehyde 2 as a mechanism-based crosslinker, a set of peptide substrate derivatives with and without an engineered cysteine (biotin-ZRPRTSSF-OH 3, fluorescein-ZZRPRTSSF-OH 4, biotin-ZRPRTSCF-OH 5 and fluorescein-ZZRPRTSCF—OH 6) were incubated with the kinase, AKT1 (Alessi et al., FEBS Lett. 399: 333-338 (1996)). […] As expected, the peptide-AKT1 covalent complex runs at a slightly higher molecular weight than unmodified AKT1 on SDS-PAGE.

T1 sequence (P31749 whole entry): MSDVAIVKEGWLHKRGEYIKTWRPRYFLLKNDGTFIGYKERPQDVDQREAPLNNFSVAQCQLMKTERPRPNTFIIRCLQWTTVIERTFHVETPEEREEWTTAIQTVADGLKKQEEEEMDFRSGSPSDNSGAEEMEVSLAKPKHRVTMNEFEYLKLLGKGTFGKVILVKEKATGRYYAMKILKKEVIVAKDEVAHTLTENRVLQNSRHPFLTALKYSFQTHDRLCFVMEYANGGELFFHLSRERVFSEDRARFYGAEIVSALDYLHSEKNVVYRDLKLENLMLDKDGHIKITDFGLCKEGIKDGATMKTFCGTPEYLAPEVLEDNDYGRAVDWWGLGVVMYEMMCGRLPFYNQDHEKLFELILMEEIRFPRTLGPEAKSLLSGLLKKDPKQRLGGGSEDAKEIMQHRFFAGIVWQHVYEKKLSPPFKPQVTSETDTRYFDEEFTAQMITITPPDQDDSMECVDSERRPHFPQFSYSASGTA
T2 sequence (P31749 whole entry): as above

Compound	anti-AKT signal after avidin-agarose pull-down of the biotinylated substrate (AKT kinase)	crosslinking of peptide to AKT1 (formation of the peptide-AKT1 complex) (His 6-tagged human Akt1)	further results
Biotin-PEG-RPRTSCF-OH	positive signal		
Biotin-PEG-RPRTSSF-OH [reference compound]	No signal		
Fluorescein-Ahx-Ahx-Arg-Pro-Arg-Thr-Ser-Cys-Phe-OH ({fluorescein-Ahx-Ahx}-RPRTSCF-OH) [peptide 6]		identical results	
Nc1ncnc2c1ncn2C1OC(COC(=O)c2ccc(C=O)c(C=O)c2)C(O)C1O (stereo not shown) [dialdehyde 2]			anti-AKT signal after crosslinking in cell lysate by the crosslinker (AKT kinase; 100 μM crosslinker 2 with 1 μM Biotin-PEG-RPRTSCF-OH, 90 minutes): positive signal; crosslinking of AKT1 and peptide by the crosslinker (formation of the peptide-AKT1 complex) (His 6-tagged human Akt1; dialdehyde 2 incubated with cysteine-containing peptide 5 and AKT1, FIG. 2A lane 2): rapid formation of the peptide-AKT1 complex was observed
{Biotin-Ahx}-RPRTSCF-OH [peptide 5]		rapid formation of the peptide-AKT1 complex was observed	
{Biotin-Ahx}-RPRTSSF-OH [peptide 3, reference compound]		no detectable crosslinking	
